# Reference: the supplement of paper PMC10949913
# “And” between values parts separate entries of the source, which are not always exact repeats. Equal values may be shown once.
# What was measured:
# Test in all cases: area under concentration-response curve (viability) (AUC (a.u.)); higher = less active
# Conditions in all cases: 48 h
# [1] = system: CU-ACC1
# In short: (§1)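 Library compounds were dispensed at 11 concentrations (23 nL each) onto three adrenocortical carcinoma cell lines in 1,536-well plates. Luminescence was recorded after 48 h using CellTiter-Glo, and signals were normalised per plate to vehicle and empty-well controls. Fitted concentration-response curves of inhibitory or non-responding classes only supplied the AC50 and area under the curve.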
# [2] = system: NCI-H295R
# In short: as §1
# [3] = system: CU-ACC2
# In short: as §1
SMILES,area under concentration-response curve [1],area under concentration-response curve [2],area under concentration-response curve [3]
COC(=O)CCC1=C(C)C2=CC3=NC(=CC4=C(C)C(=C([NH]4)C=C\5N=C(C=C1[NH]2)\C(=C5C)CCC(O)=O)C=C)\C6=C\C=C(/[C@@H](C(=O)OC)[C@@]36C)C(=O)OC,438,462,416
COC(=O)/C=C/C(=O)OC,525,550,608
Cc1cccc(-c2nn(C(=S)Nc3ccccc3)cc2-c2ccnc3ccccc23)n1,506,470,590
COC1=CC(=C2C(=O)N\C(=N/C2=C1)C3=CC(=C(OCCO)C(=C3)C)C)OC,532,541,532
CC1(C)NC(=O)N(c2ccc([N+](=O)[O-])c(C(F)(F)F)c2)C1=O,511,543,634
CC(C)C[C@@H](C(=O)N[C@H](C(=O)OC1CCCC1)c1ccccc1)[C@H](O)C(=O)NO,463,539,551
CC(C)(CNC(=O)c1cccc(-c2noc(C(F)(F)F)n2)c1)c1coc(-c2ccccc2)n1,558,506,585
CN(C)[C@H]\1[C@@H]2[C@@H](O)[C@H]3\C(=C(O)/[C@]2(O)C(=O)\C(=C1O)C(N)=O)C(=O)C4=C(C=CC=C4O)[C@@]3(C)O,593,530,625
CN(C)c1ccc(-c2nc3c(N4CCN(CC(=O)Nc5nccs5)CC4)c(Cl)cnc3[nH]2)cc1,618,600,658
O=C(Nc1ccc2c(c1)CCN(Cc1ncn[nH]1)C2)c1ccccc1-c1ccc(C(F)(F)F)cc1,374,476,505
ClC1=C(N\C2=N\CCN2)C3=NSN=C3C=C1,412,541,609
O=C1CC[C@H](N2Cc3c(OCc4ccc(CN5CCOCC5)cc4)cccc3C2=O)C(=O)N1,517,552,606
C[C@]\12CC[C@H](O)CC1=C/C[C@@H]3[C@@H]2CC[C@@]\4(C)[C@H]3C\C=C4C5=CN=CC=C5,522,509,588
Nc1ncnc2c1c(COc1cccc(Cl)c1)nn2C1CCOCC1,461,525,578
COc1ccc2c(c1)CC[C@@H](CN(C)CC(=O)O)[C@H]2c1ccccc1,487,464,514
CCOC(=O)N1c2ccc(C(F)(F)F)cc2[C@@H](N(Cc2cc(C(F)(F)F)cc(C(F)(F)F)c2)C(=O)OC)C[C@H]1CC,502,533,636
CCCOc1ccn2c(C(C)=O)cc(-c3ccccc3[S+](C)(=O)[O-])c2c1,485,527,445
COc1nccc(-c2c(-c3ccc(F)cc3)ncn2C2CCC(O)CC2)n1 (stereo not drawn),523,550,590
CC[C@]12CC[C@H]3[C@@H](CCC/4=C/C(=O)CC[C@H]34)[C@@H]1CC[C@@]2(O)C#C,519,575,614
C=CC(=O)N1CCC(CNc2ncnc(N)c2-c2ccc(Oc3ccccc3)cc2)CC1,550,566,615
c1cc(-c2sc(-c3ccncc3)c(-c3ccncc3)c2-c2ccncc2)ccn1,549,565,544
CC(S)C(=O)NCC(=O)O (stereo not drawn),547,563,632
CC(=O)OCCN1C(=O)c2c(C)nc3ccc([S+](=O)([O-])N4CCOCC4)cc3c2C1=O,547,581,653

SMILES,area under concentration-response curve [1],area under concentration-response curve [2],area under concentration-response curve [3]
N/C(=N\OCC(O)CN1CCCCC1)c1cccnc1 (stereo not drawn),415,455,447
C[N+](C)(C)CC(=O)O,501,560,611
C[C@]12C[C@H](O)[C@H]3[C@@H](CC\C4=C\C(=O)\C=C/[C@]34C)[C@@H]1CC[C@]2(O)C(=O)CO,496,545,590
O=C(O)CCCCN(CCc1ccccc1OCc1ccc(CCc2ccccc2)cc1)Cc1ccc(C(=O)O)cc1,471,495,561
CC1=CC=C2N=C(NC(=O)CS\C3=N\C4=C(\SCC4)C(=O)N3C5=CC=CC=C5)SC2=C1,538,558,633
CCC(C)CCCCC(=O)N[C@@H](CCN)C(=O)NC(C(=O)N[C@H](CCN)C(=O)N[C@@H]1CCNC(=O)C([C@@H](C)O)NC(=O)[C@@H](CCN)NC(=O)[C@@H](CCN)NC(=O)[C@@H](CC(C)C)NC(=O)[C@H](Cc2ccccc2)NC(=O)[C@H](CCN)NC1=O)[C@@H](C)O (stereo partly drawn),505,553,631
c1ccc(CNCc2ccc(CN3CCCNCCNCCCNCC3)cc2)nc1,514,542,601
CCC(=O)N1CCOc2c(cc(-c3cc(OC)cc(OC)c3)cc2C(=O)N[C@H]2CCCN(C)C2)C1,500,463,550
CN(CCOc1ccc(C[C@H](Nc2ccccc2C(=O)c2ccccc2)C(=O)O)cc1)c1ccccn1,429 and 437,388 and 454,413
Cc1[nH]c(/C=C2\C(=O)Nc3ccc([S+](=O)([O-])Cc4c(Cl)cccc4Cl)cc32)c(C)c1C(=O)N1CCC[C@@H]1CN1CCCC1,334,376,351
C/C(O)=C(\C#N)C(=O)Nc1ccc(C(F)(F)F)cc1,503,524,607
CCO[C@@H]1OC(=O)C[C@@H]1NC(=O)[C@@H]1CCCN2C(=O)CC[C@H](NC(=O)c3nccc4ccccc34)C(=O)N12,568,553,594
CC(=O)N1CCN(c2ccc(NC(=O)Cc3cnc(-c4ccnc(F)c4)c(C)c3)nc2)CC1,550,582,643
CCN1\C(=C(C(=O)NC)/C(=O)C2=C1N=C(C=C2)C#CC(C)(O)COC)N (stereo not drawn),482,510,579
NC/1=N/[C@]2(COC[C@H]2CS1)C3=CC(=CC=C3F)NC(=O)C4=NC=C(F)C=C4,499,490,569
O=C1NC(=O)/C(=C/c2ccc3nccnc3c2)S1,452,496,443
CCCCN(CCCC)CC(O)c1cc(Cl)cc2c1-c1ccc(Cl)cc1/C2=C/c1ccc(Cl)cc1 (stereo not drawn),546,582,631
Cc1[nH]c(/C=C2\C(=O)Nc3ccccc32)c(C)c1CCC(=O)O,496,480,535
O=[N+]([O-])c1cncn1CCN1CCOCC1,545,563,611
[2H]c1nc(C)nc([2H])c1-c1cc(NC[C@@H](C)c2cccc3c(C(=O)NC)ccnc23)ncn1,531,585,629
Nc1ncnc2ccccc12,534,566,633
[O-][S+]1(=O)/N=C(/NC2=CC(=CC=C2)NC(=O)CCl)C3=CC=CC=C13,446,528,557
CC1=CC=C(C=C1)\C2=N\C3=CC=C(Cl)C=C3OC2,504,546,613
